Source: patent US12491170B2, “Stable treprostinil prodrugs” (United Therapeutics Corporation, priority 2020, dated 2025)

Legend:
[1] = Stability in human subcutaneous skin homogenate; conditions: for AUC: human
Procedure: The pool of skin homogenate was prepared by combining equal volumes of three lots that were tested in the initial skin homogenate lot assessment experiments.
A stock solution of calcein-AM was first prepared at 5 mM in DMSO, followed by a serial dilution into methanol at a concentration of 100 μM. 495 μL of skin homogenate was thawed and warmed to 37° C. A 5 μL aliquot of the 100 μM calcein-AM solution was spiked into the skin homogenate, for a final calcein-AM dosing concentration of 1 μM. After briefly mixing, 150 μL aliquots were removed in triplicate and transferred to 96-well Falcon plates. The plates were placed onto a Thermomixer and maintained at 37° C., with gentle shaking for the duration of the experiment. At each time point (0, 15, 30, 60, and 120 minutes), the plate was removed from the Thermomixer and transferred to a FLUOstar® plate reader, and the formation of calcein (Sigma) was monitored by fluorescence (490/515 nm). Calibration standards of calcein were prepared in distilled water by serial dilutions of a calcein DMSO stock at final concentrations ranging from 1 μM to 1 nM. All samples and standards were read concurrently (Table 13).
For each of the test articles, 495 μL of skin homogenate was added to triplicate centrifuge tubes. To each tube, 5 μL of a 100 μM solution of test article was added, for a final test article dosing concentration of 1 μM. The tubes were placed onto a Thermomixer and maintained at 37° C. with gentle shaking for the duration of the experiment. At each time point (0, 30, 60, and 120 minutes), a 100 μL aliquot was removed from each tube and combined with 200 μL of acetonitrile to stop the stability reaction. The tubes were mixed and centrifuged at 3000 rpm for 10 minutes. Aliquots of supernatant were removed and diluted 1:1 with distilled water containing internal standard (2 μM treprostinil-d4). Calibration standards for the treprostinil analysis were prepared for each test article in a surrogate matrix (supernatant from a mixture of 1:2 human plasma:acetonitrile), at concentrations ranging from 1 μM to 1 nM. Calibration standards were also diluted 1:1 with distilled water containing internal standard. The disappearance of each individual test article was monitored, as well as the formation of treprostinil (Table 14 and Table 15).

[2] = Stability in cryopreserved hepatocytes, human
Procedure: (§1) Mixed-gender human cryopreserved hepatocytes, male Sprague-Dawley rat cryopreserved hepatocytes, and male Beagle dog cryopreserved hepatocytes were purchased from XenoTech. The hepatocytes were thawed and prepared according to the vendor's instructions, pooled into Krebs Henseleit buffer (KHB, pH 7.4), and kept on ice prior to the experiments. […] The final DMSO content in the incubation mixture was ≤0.1%. […] Aliquots of the test article were withdrawn (n=1) at 0, 15, 30, 60, and 120 minutes. […] Aliquots of 7-HC were withdrawn (n=1) at 0 and 15 minutes. The reaction was immediately terminated by adding two volumes of ice-cold acetonitrile (ACN) to the test article samples and three volumes of ACN containing internal standard to the positive control samples. The samples were then mixed and centrifuged to precipitate proteins. An aliquot of the supernatant was then diluted with water and analyzed by LC-MS/MS against calibration standards prepared in a matched matrix. […] All test article samples were analyzed for the dosed prodrugs as well as the drug, treprostinil. The test article concentration was compared to the concentration at time 0 to determine the percent of test article remaining at each time point. Half-lives and clearance values were calculated using GraphPad software, fitting to a single-phase exponential decay equation.

[3] = Stability in cryopreserved hepatocytes, rat
Procedure: as §1

[4] = Stability in cryopreserved hepatocytes, dog
Procedure: as §1

[5] = both, human, 15 min, 100 μM, pH 7.4
[6] = male, Sprague-Dawley, rat, 15 min, 100 μM, pH 7.4
[7] = male, Beagle, dog, 15 min, 100 μM, pH 7.4

With `CCCCCC(CCC1C(O)CC2Cc3c(cccc3OCC(=O)O)CC21)OC(=O)OCCOC` (centres unmarked) [XL] the “Trep Concentration 0 min” value [1] was 0 µM, the “Trep Concentration 30 min” value [1] was 0.202 µM and the “Trep Concentration 60 min” value [1] was 0.329 µM. The “Trep Concentration 120 min” value [1] was 0.59 µM and the AUC [1] was 38.57 µmol·min/L.

In the case of `O=c1ccc2ccc(O)cc2o1` [7-Hydroxycoumarin, 7-hydroxycoumarin, reference compound], the “Formation Rate of 7-HC-G (glucuronide)” value [2, 5] is reported as 97.7 pmol/min/10^6 cells, the “Formation Rate of 7-HC-S (sulfate)” value [2, 5] is reported as 10.8 pmol/min/10^6 cells and the “Formation Rate of 7-HC-G (glucuronide)” value [3, 6] is reported as 91.4 pmol/min/10^6 cells. For the same compound, the “Formation Rate of 7-HC-S (sulfate)” value [3, 6] was 24.7 pmol/min/10^6 cells, the “Formation Rate of 7-HC-G (glucuronide)” value [4, 7] was 114 pmol/min/10^6 cells and the “Formation Rate of 7-HC-S (sulfate)” value [4, 7] was 35.9 pmol/min/10^6 cells.

For `CCCCCC(CCC1C(O)CC2Cc3c(cccc3OCC(=O)O)CC21)OC(=O)OCCOCCOC` (centres unmarked) [XLI], the “Trep Concentration 0 min” value [1] was 0 µM, the “Trep Concentration 30 min” value [1] was 0.0526 µM and the “Trep Concentration 60 min” value [1] was 0.091 µM. For the same compound, the “Trep Concentration 120 min” value [1] was 0.19 µM and the AUC [1] was 11.37 µmol·min/L.

For `CCCCCC(O)CCC1C(O)CC2Cc3c(cccc3OCC(=O)NCC(=O)O)CC21` (centres unmarked) [VII orig], the AUC [1] was 0.14 µmol·min/L.

For `CCCCCC(CCC1C(O)CC2Cc3c(cccc3OCC(=O)O)CC21)OC(=O)CCC(=O)O` (centres unmarked) [XX new], the “Trep Concentration 0 min” value [1] was 0 µM, the “Trep Concentration 30 min” value [1] was 0.00878 µM and the “Trep Concentration 60 min” value [1] was 0.0149 µM. For the same compound, the “Trep Concentration 120 min” value [1] was 0.0271 µM and the AUC [1] was 1.75 µmol·min/L.

In the case of `CCCCCC(CCC1C(O)CC2Cc3c(cccc3OCC(=O)O)CC21)OC(=O)NC` (centres unmarked) [VIII], the “Trep Concentration (μM) 0 min” value [2] is reported as 0 µM, the “Trep Concentration (μM) 15 min” value [2] is reported as 0 µM and the “Trep Concentration (μM) 30 min” value [2] is reported as 0 µM. For the same compound, the “Trep Concentration (μM) 60 min” value [2] was 0.00464 µM, the “Trep Concentration (μM) 120 min” value [2] was 0 µM and the “AUC” value ([2]; human) was 0.21 µmol·min/L. The “Trep Concentration (μM) 0 min” value [3] was 0 µM, the “Trep Concentration (μM) 15 min” value [3] was 0 µM and the “Trep Concentration (μM) 30 min” value [3] was 0 µM. For the same compound, the “Trep Concentration (μM) 60 min” value [3] was 0.00511 µM, the “Trep Concentration (μM) 120 min” value [3] was 0 µM and the “AUC” value ([3]; rat) was 0.23 µmol·min/L. The “Trep Concentration (μM) 0 min” value [4] was 0 µM, the “Trep Concentration (μM) 15 min” value [4] was 0 µM and the “Trep Concentration (μM) 30 min” value [4] was 0 µM. The “Trep Concentration (μM) 60 min” value [4] was 0 µM, the “Trep Concentration (μM) 120 min” value [4] was 0 µM and the “AUC” value ([4]; dog) was 0.00 µmol·min/L. For the same compound, the “Trep Concentration 0 min” value [1] was 0 µM, the “Trep Concentration 30 min” value [1] was 0 µM and the “Trep Concentration 60 min” value [1] was 0 µM. The “Trep Concentration 120 min” value [1] was 0 µM and the AUC [1] was 0.00 µmol·min/L.

With `CCCCCC(CCC1C(O)CC2Cc3c(cccc3OCC(=O)O)CC21)OCc1oc(=O)oc1C` (centres unmarked) [LI] the “Trep Concentration (μM) 0 min” value [2] was 0.0425 µM, the “Trep Concentration (μM) 15 min” value [2] was 0.647 µM and the “Trep Concentration (μM) 30 min” value [2] was 0.626 µM. The “Trep Concentration (μM) 60 min” value [2] was 0.608 µM, the “Trep Concentration (μM) 120 min” value [2] was 0.55 µM and the “AUC” value ([2]; human) was 67.97 µmol·min/L. For the same compound, the “Trep Concentration (μM) 0 min” value [3] was 0.327 µM, the “Trep Concentration (μM) 15 min” value [3] was 0.703 µM and the “Trep Concentration (μM) 30 min” value [3] was 0.61 µM. The “Trep Concentration (μM) 60 min” value [3] was 0.523 µM, the “Trep Concentration (μM) 120 min” value [3] was 0.464 µM and the “AUC” value ([3]; rat) was 64.18 µmol·min/L. For the same compound, the “Trep Concentration (μM) 0 min” value [4] was 0.0214 µM, the “Trep Concentration (μM) 15 min” value [4] was 0.627 µM and the “Trep Concentration (μM) 30 min” value [4] was 0.605 µM. The “Trep Concentration (μM) 60 min” value [4] was 0.537 µM, the “Trep Concentration (μM) 120 min” value [4] was 0.482 µM and the “AUC” value ([4]; dog) was 61.80 µmol·min/L.

For `CCCCCC(CCC1C(O)CC2Cc3c(cccc3OCC(=O)O)CC21)OC(=O)OC` (centres unmarked) [IV 3rd], the AUC [1] was 9.59 µmol·min/L.

In the case of `CCCCCC(CCC1C(O)CC2Cc3c(cccc3OCC(=O)O)CC21)OC(=O)OC` (centres unmarked) [IV 1st], the AUC [1] is reported as 7.07 µmol·min/L.

For `C[C@]12CC[C@H]3[C@@H](CCC4=CC(=O)CC[C@@]43C)[C@@H]1CC[C@@H]2O` [Testosterone, testosterone, reference compound], the “Half-life (positive control)” value ([2]; human hepatocytes, 1 μM, control) was 4.82 min.

Work on `CCCCCC(O)CCC1C(O)CC2Cc3c(cccc3OCC(=O)NCC(=O)O)CC21` (centres unmarked) [VII new] yielded an AUC [1] of 0.00 µmol·min/L.

`CCCCCC(CCC1C(O)CC2Cc3c(cccc3OCC(=O)O)CC21)OC(=O)OC` (centres unmarked) [IV 2nd] gave an AUC [1] of 62.69 µmol·min/L.
